The record followed here is EPA's ToxValDB 9.5 (doi:10.2903/j.efsa.2009.258r).

One data set concerns Aphidius rhopalosiphi. In words: LR50; higher = less toxic. The following applies: not reported; mortality.
The next data set relates to Pimephales promelas. The conditions noted are these: chronic/long-term; duration: 28 days; growth.
The test system of a further data set is Oryctolagus sp. The conditions noted are these: reproduction developmental; food consumption.
The next data set concerns Daphnia magna. The following applies: chronic/long-term; duration: 21 days; reproduction.
Another data set deals with Canidae. The conditions noted are these: chronic; duration: 1 years; oral; Dog Other; clinical chemistry.
The test system of another data set is Bibionidae. The conditions noted are these: chronic/long-term; duration: 28 days; reproduction.
The test system of the next data set is Apis mellifera. The conditions noted are these: acute; oral; unspecified; mortality.
The next data set concerns Folsomia candida. The conditions noted are these: chronic/long-term; duration: 28 days.
Another data set has as its system Tagia sp. The following applies: acute; duration: 14 days; mortality.

As for `O=C(Cc1ccccc1)N/C(=N\OCC1CC1)c1c(C(F)(F)F)ccc(F)c1F` [Cyflufenamid], the LR50 in the data set on Aphidius rhopalosiphi worked out at 50 g/ha. Further, the NOEC in the data set on Pimephales promelas was 0.024 mg/L; in the data set with Daphnia magna, 0.0406 mg/L; in the data set on Bibionidae it was 1 mg/L; in the data set with Rattus norvegicus (reproduction developmental, mortality), 800 mg/kg-day; in the data set on Folsomia candida, more than 0.0178 mg/kg; in the data set on Colinus virginianus (reproduction developmental), 98 mg/kg-day. Moreover, the no-observed-adverse-effect level (NOAEL) with Oryctolagus sp. came out at 5 mg/kg-day; in the data set on Canidae it was 4.1 mg/kg-day; in the data set on Rattus norvegicus (chronic, duration: 2 years, F, histopathology: nonneoplastic) it was 4.4 mg/kg-day; in the data set with Rattus norvegicus (chronic, duration: 2 years, M, histopathology: nonneoplastic) it was 4.4 mg/kg-day; in the data set on Rattus norvegicus (reproduction developmental, reproduction), 57 mg/kg-day. The LD50 was more than 5000 mg/kg-day in the data set on Rattus norvegicus (acute, oral, mortality); more than 100 µg/piece in the data set on Apis mellifera; more than 2000 mg/kg-day in the data set on Colinus virginianus (acute, oral, mortality). The LC50 was more than 500 mg/kg in the data set on Tagia sp. and more than 743 mg/kg-day in the data set on Colinus virginianus (acute, oral, diet, mortality).
